Tests used:
Assay in all cases: Cancer cell proliferation assay (acid phosphatase)
Type in all cases: cell-based
TOV-21G (ovarian) = conditions: Homo sapiens, TOV21G; Table 6E; read-out: Proliferation IC50 (nM) Ovarian TOV21G
Method in brief: (§1)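 Cells seeded at 4×10^4 cells/ml were incubated overnight at 37° C., 5% CO2, then exposed to compound at varying concentrations in triplicate for 72 hrs. Proliferation was read by acid phosphatase assay (p-nitrophenol phosphate, pH 5.5, 2 hours, 405 nm minus 620 nm) as percent inhibition versus DMSO controls.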

TOV-112D (ovarian) = conditions: Homo sapiens, TOV112D; Table 6E; read-out: Proliferation IC50 (nM) Ovarian TOV112D
Method in brief: as §1

Ovarian (A2780) = conditions: Homo sapiens, Table 6E
Method in brief: as §1

Ovarian (OAW42) = conditions: Homo sapiens, OAW-42; Table 6E
Method in brief: as §1

HCT-116 (colon) = conditions: Homo sapiens, HCT-116; Table 6E; read-out: Proliferation IC50 (nM) CRC HCT-116
Method in brief: as §1

JEKO-1 (lymophoma) = conditions: Homo sapiens, Table 6E, read-out: Proliferation IC50 (nM) Mantle Cell Jeko-1
Method in brief: as §1

Mantle Cell Mino = conditions: Homo sapiens, Table 6E
Method in brief: as §1

Compound `Cc1ccccc1C(=O)Nc1nc(NC(=O)c2ccccc2C)n(-c2ccccc2)n1` [Compound F, 2-methyl-N-[5-[(2-methylbenzoyl)amino]-1-phenyl-1,2,4-triazol-3-yl]benzamide] has an IC50 (TOV-21G (ovarian)) of 1500 nM, an IC50 (TOV-112D (ovarian)) of 850 nM and an IC50 (Ovarian (A2780)) of 1300 nM. It also gave an IC50 (Ovarian (OAW42)) of over 2500 nM, an IC50 (HCT-116 (colon)) of 1300 nM and an IC50 (JEKO-1 (lymophoma)) of over 2500 nM. The IC50 (Mantle Cell Mino) was 884 nM.

— patent publication US10889553B2, “Asymmetric triazole benzamide derivatives and the compositions and methods of treatment regarding the same” (NysnoBio Ireland DAC, priority 2017, dated 2021)
